Experimental data taken from the supplement of paper PMC10307832.

How the values were obtained:
Assay in all cases: relative viability (nuclei count vs DMSO), 5 days (fraction); higher = more cells survive
ChaGo-K-1 = test system: ChaGo-K-1
Procedure, shortened: (§1)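 Relative viability equals treated-well nuclei counts divided by vehicle-well nuclei counts. Counts came from 4× images of lung cancer cell lines grown in 1536-well plates for 5 days after pin-tool dosing on the day after seeding. Dosing used one drug alone or a fixed anchor-drug dose plus five library-drug doses (not always all listed) in √10 steps, and values are medians of duplicate plates.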

NCI-H1648 = test system: NCI-H1648
Procedure, shortened: as §1

IA-LM = test system: IA-LM
Procedure, shortened: as §1

A549 = test system: A549
Procedure, shortened: as §1

NCI-H1703 = test system: NCI-H1703
Procedure, shortened: as §1

SMILES | relative viability (ChaGo-K-1; first compound 0.04 µM) | relative viability (ChaGo-K-1; first compound 0.1265 µM) | relative viability (ChaGo-K-1; first compound 0.4 µM) | relative viability (ChaGo-K-1; first compound 4 µM) | relative viability (NCI-H1648; first compound 0.04 µM) | relative viability (NCI-H1648; first compound 0.1265 µM) | relative viability (NCI-H1648; first compound 0.4 µM) | relative viability (NCI-H1648; first compound 4 µM) | relative viability (ChaGo-K-1; first compound 0.01 µM) | relative viability (ChaGo-K-1; first compound 0.03162 µM) | relative viability (ChaGo-K-1; first compound 0.3162 µM) | relative viability (NCI-H1648; first compound 0.01 µM) | relative viability (NCI-H1648; first compound 0.03162 µM) | relative viability (NCI-H1648; first compound 0.3162 µM) | relative viability (ChaGo-K-1; first compound 1.265 µM) | relative viability (NCI-H1648; first compound 1.265 µM) | further results
C[C@@H]1CN(CC(=O)Nc2ccc3c(c2)Cc2cccc(-c4cc(=O)cc(N5CCOCC5)o4)c2S3)C[C@H](C)O1 + Nc1nc2[nH]cc(CCc3ccc(C(=O)N[C@@H](CCC(=O)O)C(=O)O)cc3)c2c(=O)[nH]1 [Pemetrexed] (partner 0.2 µM) | 0.24 | 0.245 | 0.252 | 0.226 | 0.588 | 0.801 | 0.747 | 0.64 |  |  |  |  |  |  |  |  | 
C[C@@H]1CN(CC(=O)Nc2ccc3c(c2)Cc2cccc(-c4cc(=O)cc(N5CCOCC5)o4)c2S3)C[C@H](C)O1 + O=C(CCCCCCC(=O)Nc1ccccc1)NO [Vorinostat] (partner 1 µM) | 0.496 | 0.778 | 0.803 | 0.72 | 0.505 | 0.605 | 0.644 | 0.528 |  |  |  |  |  |  |  |  | relative viability (IA-LM; first compound 0.04 µM): 0.819; relative viability (IA-LM; first compound 0.1265 µM): 0.933; relative viability (IA-LM; first compound 0.4 µM): 1.09; relative viability (IA-LM; first compound 4 µM): 0.897
CC(C)Oc1cc(Nc2nc(N[C@@H](C)c3ccc(F)cn3)ncc2Cl)n[nH]1 [AZ23] + Nc1ncn([C@H]2C[C@H](O)[C@@H](CO)O2)c(=O)n1 [Decitabine] (partner 2 µM) |  |  |  |  |  |  |  |  | 0.567 | 0.512 | 0.519 | 0.546 | 0.534 | 0.509 |  |  | relative viability (A549; first compound 0.01 µM): 0.3; relative viability (A549; first compound 0.03162 µM): 0.325; relative viability (A549; first compound 0.3162 µM): 0.281
C[C@@H]1CN(CC(=O)Nc2ccc3c(c2)Cc2cccc(-c4cc(=O)cc(N5CCOCC5)o4)c2S3)C[C@H](C)O1 + Nc1ncn([C@H]2C[C@H](O)[C@@H](CO)O2)c(=O)n1 [Decitabine] (partner 2 µM) | 0.498 | 0.531 | 0.56 | 0.455 | 0.41 | 0.515 | 0.591 | 0.434 |  |  |  |  |  |  |  |  | relative viability (A549; first compound 0.04 µM): 0.24; relative viability (A549; first compound 0.1265 µM): 0.227; relative viability (A549; first compound 0.4 µM): 0.254; relative viability (A549; first compound 4 µM): 0.31
COc1cc(N2CCC(C(N)=O)CC2)ccc1Nc1nc(N)c(Cl)c(Nc2ccccc2S(=O)(=O)C(C)C)n1 [HG-5-88-01] + NC(=O)Nc1cc(-c2cccc(F)c2)sc1C(=O)N[C@H]1CCCNC1 [AZD7762] (partner 0.2 µM) | 0.842 | 0.909 | 0.828 | 0.727 | 0.63 | 0.624 | 0.695 | 0.654 |  |  |  |  |  |  | 0.852 | 0.683 | relative viability (NCI-H1703; first compound 0.04 µM): 0.106; relative viability (NCI-H1703; first compound 0.1265 µM): 0.133; relative viability (NCI-H1703; first compound 1.265 µM): 0.122; relative viability (NCI-H1703; first compound 4 µM): 0.124
COc1cc(N2CCC(C(N)=O)CC2)ccc1Nc1nc(N)c(Cl)c(Nc2ccccc2S(=O)(=O)C(C)C)n1 [HG-5-88-01] + Nc1ncn([C@H]2C[C@H](O)[C@@H](CO)O2)c(=O)n1 [Decitabine] (partner 2 µM) | 0.524 | 0.515 | 0.51 | 0.552 | 0.5 | 0.443 | 0.457 | 0.292 |  |  |  |  |  |  | 0.542 | 0.359 | relative viability (A549; first compound 0.04 µM): 0.296; relative viability (A549; first compound 0.1265 µM): 0.34; relative viability (A549; first compound 0.4 µM): 0.274; relative viability (A549; first compound 1.265 µM): 0.246; relative viability (A549; first compound 4 µM): 0.388
Clc1ccc(Nc2nnc(Cc3ccncc3)c3ccccc23)cc1 [Vatalanib] + Nc1ncn([C@H]2C[C@H](O)[C@@H](CO)O2)c(=O)n1 [Decitabine] (partner 2 µM) | 0.494 | 0.52 | 0.533 | 0.527 | 0.497 | 0.462 | 0.514 | 0.482 |  |  |  |  |  |  | 0.522 | 0.425 | relative viability (A549; first compound 0.04 µM): 0.238; relative viability (A549; first compound 0.1265 µM): 0.451; relative viability (A549; first compound 0.4 µM): 0.313; relative viability (A549; first compound 1.265 µM): 0.213; relative viability (A549; first compound 4 µM): 0.295
CC(C)Oc1cc(Nc2nc(N[C@@H](C)c3ccc(F)cn3)ncc2Cl)n[nH]1 [AZ23] + CC(=O)c1c(C)c2cnc(Nc3ccc(N4CCNCC4)cn3)nc2n(C2CCCC2)c1=O [Palbociclib] (partner 0.5 µM) |  |  |  |  |  |  |  |  | 1.12 | 0.97 | 1 | 0.227 | 0.208 | 0.23 |  |  | 
CC(C)Oc1cc(Nc2nc(N[C@@H](C)c3ccc(F)cn3)ncc2Cl)n[nH]1 [AZ23] + Nc1nc2[nH]cc(CCc3ccc(C(=O)N[C@@H](CCC(=O)O)C(=O)O)cc3)c2c(=O)[nH]1 [Pemetrexed] (partner 0.2 µM) |  |  |  |  |  |  |  |  | 0.24 | 0.256 | 0.269 | 0.706 | 0.632 | 0.807 |  |  | 
COc1cc(N2CCC(C(N)=O)CC2)ccc1Nc1nc(N)c(Cl)c(Nc2ccccc2S(=O)(=O)C(C)C)n1 [HG-5-88-01] + CC(=O)c1c(C)c2cnc(Nc3ccc(N4CCNCC4)cn3)nc2n(C2CCCC2)c1=O [Palbociclib] (partner 0.5 µM) | 0.931 | 0.813 | 0.881 | 0.881 | 0.291 | 0.27 | 0.321 | 0.244 |  |  |  |  |  |  | 0.959 | 0.206 | 
COc1cc(N2CCC(C(N)=O)CC2)ccc1Nc1nc(N)c(Cl)c(Nc2ccccc2S(=O)(=O)C(C)C)n1 [HG-5-88-01] + CC(=O)Nc1cccc(-n2c(=O)n(C3CC3)c(=O)c3c(Nc4ccc(I)cc4F)n(C)c(=O)c(C)c32)c1 [Trametinib] (partner 0.02 µM) | 0.868 | 0.908 | 0.843 | 0.875 | 0.485 | 0.459 | 0.417 | 0.316 |  |  |  |  |  |  | 0.925 | 0.352 | 
CC(C)Oc1cc(Nc2nc(N[C@@H](C)c3ccc(F)cn3)ncc2Cl)n[nH]1 [AZ23] + NC(=O)Nc1cc(-c2cccc(F)c2)sc1C(=O)N[C@H]1CCCNC1 [AZD7762] (partner 0.2 µM) |  |  |  |  |  |  |  |  | 0.93 | 0.811 | 0.959 | 0.659 | 0.518 | 0.762 |  |  | relative viability (NCI-H1703; first compound 0.03162 µM): 0.126; relative viability (NCI-H1703; first compound 0.3162 µM): 0.154
